Test results: publication PMC9657696, “Novel BH4-BCL-2 Domain Antagonists Induce BCL-2-Mediated Apoptosis in Triple-Negative Breast Cancer” (Cancers, 2022)
Like-named read-outs stand apart in the source and are kept apart here.

Columns and labels:
[1] = system: MDA-MB-231 xenografts; assay: MDA-MB-231 xenograft in athymic mice; type: in vivo
Protocol: Mice were sheltered in the animal facility of Sri Ramachandra Medical College and Research Institute (Chennai, India), which has been certified as a pathogen-free animal house for performing mice experiments. All the methods were carried out according to the IAEC guidelines and regulations. Experimental procedures were framed and approved by the Institutional Animal Ethical Committee (IAEC) (IAEC approval number: IAEC/57/SRIHER/639/2019). The entire study was in accordance with the ARRIVE guidelines to ensure the safety of the animals. The sizes of the mice groups were chosen in accordance with statistical significance; the measurements and analysis were performed in an unbiased manner.
4–6 week-old female athymic mice were transplanted with MDA-MB-231 triple-negative breast tumor cells. The growth media with MDA-MB-231 cells and Matrigel (BD Biosciences) at a 1:1 ratio was mixed and injected into mice. The tumor lengths and widths were measured with an electronic caliper 2–3 times a week. The tumor volume was calculated using the formula: (length × width^2)/2. All of the mice were randomized after 10 days, as the tumor volume reached approximately 80–90 mm^3. A total of 25 mice were sorted into 5 treatment groups, followed by a compound treatment (SM216, SM396, SM949, and ABT199) or vehicle (n = 5 for each group). The drug compounds were formulated in PBS and administrated as i.p doses (100 mg/Kg w) for two schedules per week. Tumor growth inhibition (TGImax) was calculated using the following equation: (1) Tumor Growth Inhibition =1−mean of volume of treated at day x−mean of volume treated at day 0/mean of volume of control at day x−mean of volume of control at day 0×100
As the tumor size exceeded 600 mm^3, we euthanized the mice for ethical reasons. The euthanasia procedure used was carbon dioxide asphyxiation followed by cervical dislocation. The mean of the tumor volume ± SEM for different time points was represented until we sacrificed at least one mouse in a group.
To test the in vivo anti-cancer efficacy of the novel small molecules viz. SM216, SM396, and SM949, 4–6 weeks old female athymic mice were xenografted with MDA-MB-231 cells on the mammary fat pads and palpable tumors were induced. […] Tumor volumes were measured at regular intervals and the data were tabulated. […] The growth kinetics and maximal tumor growth inhibition (TGImax) are depicted as tumor volumes (five groups of mice treated with different drugs) in Figure 6e,f. The average tumor volume for all groups on day 0 of treatment was 92.77 mm^3. We observed that all three lead molecules inhibited tumor growth efficiently compared to the vehicle control. […] These compounds achieved regression of 60% after 20 days of treatment. […] Moreover, these compounds were well tolerated with no weight loss and hemolysis in all treatment groups. The survival was 100% for all treatment mice groups until the termination of the study. […] A decrease in the expression of PCNA was observed upon treatment with SM396 compared to the vehicle control.

[2] = system: BT549 cells; assay: MTT cell viability assay, BT549; type: cell-based; settings: Homo sapiens
Protocol: An MTT (3-(4,5-dimethylthiazol-2-yl)-2,5-diphenyltetrazolium bromide)-based colorimetric assay was performed to measure the cell viability. On a 96-well plate, cells were seeded at a density of 3000–5000 cells/well. The cell number for the assay was decided based on the exponential growth of untreated cells. The cells were treated with compounds for 72 h followed by incubation with MTT for 4 h at 37 °C. The formazan crystals were dissolved in DMSO and absorbance was measured at 540 nm. The percentage viability was calculated as % cell viability = (OD treated cells/OD control cells) × 100, and the IC50 was estimated by curve-fitting using the non-linear regression of a dose–response curve. The experiments were repeated at least two to three times.
The top 29 lead molecules, guided by the in silico results, were subjected to further in vitro validation by assessing the cellular cytotoxicity in both cancer (Figure 3a) and normal cell lines (Supplementary Figure S2a) using the MTT assay. Moreover, we performed MTT (Supplementary Figure S3c) and Annexin V assays on an additional cell line, BT549, a triple-negative breast cancer model, to validate the activity of the compounds (Supplementary Figure S4). […] We also provided the AUC plots for the top three compounds for a better understanding of the activity (Supplementary Figure S5). […]

## CC1(C)CCC(CN2CCN(c3ccc(C(=O)NS(=O)(=O)c4ccc(NCC5CCOCC5)c([N+](=O)[O-])c4)c(Oc4cnc5[nH]ccc5c4)c3)CC2)=C(c2ccc(Cl)cc2)C1 [ABT-199, venetoclax]
[1]; Day 0, i.p. 100 mg/kg, two schedules per week
  Tumor Volume, Mean: 95.35 mm^3
[1]; Day 6, i.p. 100 mg/kg
  Tumor Volume, Mean: 162.15 mm^3
[1]; Day 9, i.p. 100 mg/kg (column head printed SEM)
  Tumor Volume, Mean: 313.94 mm^3
[1]; Day 13, i.p. 100 mg/kg
  Tumor Volume, Mean: 313.03 mm^3
[1]; Day 15, upon 4 doses, i.p. 100 mg/kg
  Tumor Volume, Mean: 371.94 mm^3
[1]; Day 17, i.p. 100 mg/kg
  Tumor Volume, Mean: 424.83 mm^3
[1]; Day 20, i.p. 100 mg/kg
  Tumor Volume, Mean: 382.6 mm^3
[2]; BT-549, Supplementary Figure S3c legend, read-out: IC50 (dose-response curve fitting)
  IC50: 7.19 µM
[2]; BT-549, read-out: IC50 (non-linear regression of dose-response curves)
  IC50: 7.2 µM
